For twelve compounds, Bliss excess results are on record in the supplement of paper PMC11061612.

Common to all, as to assay: Bliss excess, mean over the matrix (fraction); higher = more synergy
Test [1] has as its system PA-1 (Ovarian Carcinoma). A digest of the protocol: (§1)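 Cell lines in DMEM/F12 or RPMI with 10% FBS were plated in 1536-well plates, held 24 hours at 37°C, 5% CO2, then given two-drug dose matrices for 72 hours (DMSO typically 0.2%). Viability was read by CellTiter-Glo 2.0 luminescence and scaled as inhibition from 0 (vehicle wells) to 1 (blank wells). Combination Emax is the second-highest inhibition in the matrix; Bliss excess is observed combination effect minus expected EA + EB − EA·EB, EA and EB being single-agent effects.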

Test [2] relates to MDST8 (Colorectal Carcinoma). A digest of the protocol:
as §1

The test system of test [3] is NCI-H1581 (Non-Small Cell Lung Carcinoma). A digest of the protocol:
as §1

In test [4] the test system is CAPAN-2 (Pancreatic Carcinoma). A digest of the protocol: as §1
In test [5] the test system is GI-ME-N (Neuroblastoma). A digest of the protocol: as §1
For test [6], the system named is COLO-824 (Breast Carcinoma). A digest of the protocol: as §1

The structures appear in SMILES notation.

For `CC(=O)c1c(C)c2cnc(Nc3ccc(N4CCNCC4)cn3)nc2n(C2CCCC2)c1=O` [Palbociclib] + Cn1cnc2c(F)c(Nc3ccc(Br)cc3Cl)c(C(=O)NOCCO)cc21 [Selumetinib] (first compound max 10 µM, 7x7, partner max 10 µM), the Bliss excess in test [1] is -0.0312; in test [2], -0.031; in test [3], 0.0466; in test [4] it was -0.0199; in test [5] it was -0.0012; in test [6] it was -0.0652.

Turning to `COc1cccc(OCCCN)c1-c1cc(Nc2cnc(C#N)cn2)n[nH]1` [Prexasertib] + C=CCn1c(=O)c2cnc(Nc3ccc(N4CCN(C)CC4)cc3)nc2n1-c1cccc(C(C)(C)O)n1 [AZD1775] (first compound max 1 µM, partner max 1 µM), the Bliss excess in test [1] was 0.03; in test [2] it was 0.0758; in test [3] it was 0.155; in test [4] it was -0.0231; in test [5], 0.0161; in test [6], 0.0432.

`COc1cccc(OCCCN)c1-c1cc(Nc2cnc(C#N)cn2)n[nH]1` [Prexasertib] + CCc1c2c(nc3ccc(O)cc13)-c1cc3c(c(=O)n1C2)COC(=O)[C@]3(O)CC [SN-38] (first compound max 1 µM, 7x7, partner max 0.3 µM): the Bliss excess is -0.0364 in test [1]; -0.1 in test [2]; 0.196 in test [3]; -0.0205 in test [4]; -0.0326 in test [5]; 0.101 in test [6].

As to `COc1cccc(OCCCN)c1-c1cc(Nc2cnc(C#N)cn2)n[nH]1` [Prexasertib] + CN(C)CCCOc1ccc(-c2ccc3ncc4c(c3c2)n(C2CCOCC2)c(=O)n4C)cn1 [AZD0156] (first compound max 1 µM, 7x7, partner max 1 µM), the Bliss excess is 0.0031 in test [1]; -0.0216 in test [2]; 0.0112 in test [3]; 0.0147 in test [4]; 0.0737 in test [5]; -0.0047 in test [6].

`COc1cccc(OCCCN)c1-c1cc(Nc2cnc(C#N)cn2)n[nH]1` [Prexasertib] + C[C@@H]1COCCN1C2=NC(=NC(=C2)C3(CC3)[S@](=N)(=O)C)C4=C5C=CNC5=NC=C4 [AZD6738] (first compound max 1 µM, 7x7, partner max 10 µM): the Bliss excess was -0.0438 in test [1]; -0.0209 in test [2]; 0.0436 in test [3]; -0.003 in test [4]; 0.0681 in test [5]; -0.0675 in test [6].

Consider `COc1cccc(OCCCN)c1-c1cc(Nc2cnc(C#N)cn2)n[nH]1` [Prexasertib] + Cc1cc2ncnn2cc1Nc1ncc2c(n1)n(C1CCOCC1)c(=O)n2C [AZD7648] (first compound max 1 µM, 7x7, partner max 10 µM), for which the Bliss excess was 0.0205 in test [1]; -0.0217 in test [2]; 0.022 in test [3]; -0.0045 in test [4]; 0.107 in test [5]; -0.01 in test [6].

Consider `COc1cccc(OCCCN)c1-c1cc(Nc2cnc(C#N)cn2)n[nH]1` [Prexasertib] + O=C(c1cc(Cc2n[nH]c(=O)c3ccccc23)ccc1F)N1CCN(C(=O)C2CC2)CC1 [Olaparib] (first compound max 1 µM, 7x7, partner max 10 µM), for which the Bliss excess was 0.0083 in test [1]; -0.0484 in test [2]; 0.0257 in test [3]; -0.169 in test [4]; -0.0649 in test [5]; -0.0481 in test [6].

On to `COc1cc2c(cc1OCCCCCOc1cc3c(cc1OC)C(=O)N1C=C(C)C[C@H]1C=N3)N=C[C@@H]1CC(C)=CN1C2=O` [SG3199] + O=C(c1cc(Cc2n[nH]c(=O)c3ccccc23)ccc1F)N1CCN(C(=O)C2CC2)CC1 [Olaparib] (first compound max 0.001 µM, 7x7, partner max 10 µM), for which the Bliss excess in test [1] was 0.0131; in test [2], -0.0151; in test [3], -0.0322; in test [4] it was -0.0506; in test [5] it was -0.036; in test [6], -0.03.

Consider `CCc1c2c(nc3ccc(O)cc13)-c1cc3c(c(=O)n1C2)COC(=O)[C@]3(O)CC` [SN-38] + CN(C)CCCOc1ccc(-c2ccc3ncc4c(c3c2)n(C2CCOCC2)c(=O)n4C)cn1 [AZD0156] (first compound max 0.3 µM, 7x7, partner max 1 µM), for which the Bliss excess is 0.0713 in test [1]; 0.0171 in test [2]; 0.016 in test [3]; -0.0468 in test [4]; -0.0089 in test [5]; 0.0473 in test [6].

For the compound `C[C@@H](c1ccc2nccn2c1)n1nnc2ncc(-c3cnn(C)c3)nc21` [Savolitinib] + CC1(C)CCC(CN2CCN(c3ccc(C(=O)NS(=O)(=O)c4ccc(NCC5CCOCC5)c([N+](=O)[O-])c4)c(Oc4cnc5[nH]ccc5c4)c3)CC2)=C(c2ccc(Cl)cc2)C1 [Venetoclax] (first compound max 1 µM, 7x7, partner max 1 µM), the Bliss excess in test [1] is -0.0163; in test [2], -0.0546; in test [3], -0.0697; in test [4], -0.0682; in test [5], -0.0925; in test [6], -0.0178.

Consider `C[C@@H](c1ccc2nccn2c1)n1nnc2ncc(-c3cnn(C)c3)nc21` [Savolitinib] + Cc1c2c(nn1C)CSCc1cc(n(C)n1)CSc1cc(c3ccccc3c1)OCCCc1c(C(=O)O)n(C)c3c-2c(Cl)ccc13 [AZD5991] (first compound max 1 µM, 7x7, partner max 1 µM), for which the Bliss excess in test [1] is -0.0266; in test [2], -0.0413; in test [3], -0.0209; in test [4] it was -0.0206; in test [5] it was -0.0778; in test [6], -0.0212.

Turning to `Cn1cnc2c(F)c(Nc3ccc(Br)cc3Cl)c(C(=O)NOCCO)cc21` [Selumetinib] + C=CCn1c(=O)c2cnc(Nc3ccc(N4CCN(C)CC4)cc3)nc2n1-c1cccc(C(C)(C)O)n1 [AZD1775] (first compound max 10 µM, partner max 1 µM), the Bliss excess was -0.001 in test [1]; -0.0165 in test [2]; 0.0258 in test [3]; 0.033 in test [4]; -0.064 in test [5]; -0.105 in test [6].
